Earlier results on three molecules are cited in US12384832B2 (priority 2019, dated 2025).

Read-outs that look alike come from different tables or passages of the source.

This series deals with TEM-1 (Escherichia coli, UniProt P62593). The settings on record: read-out: KM TEM-1, cited from earlier work.
Chain of TEM-1 (P62593 24-286 limits assumed): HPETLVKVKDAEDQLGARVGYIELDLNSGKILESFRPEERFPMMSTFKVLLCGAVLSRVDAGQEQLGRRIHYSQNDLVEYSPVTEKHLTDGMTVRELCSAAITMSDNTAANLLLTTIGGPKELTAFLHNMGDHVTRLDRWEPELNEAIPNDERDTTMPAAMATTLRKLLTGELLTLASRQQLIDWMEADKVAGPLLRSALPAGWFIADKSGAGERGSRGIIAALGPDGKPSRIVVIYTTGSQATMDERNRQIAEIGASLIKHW

The Km is the substrate concentration at which the rate is half of its maximum. For `CC1(C)S[C@@H]2[C@H](NC(=O)[C@H](N)c3ccccc3)C(=O)N2[C@H]1C(=O)O` [ampicillin], the Km (substrate hydrolysis) was 40 µM.

With `CC1(C)S[C@@H]2[C@H](NC(=O)Cc3ccccc3)C(=O)N2[C@H]1C(=O)O` [benzylpenicillin], the Km (substrate hydrolysis) is 26 µM.

For the molecule `O=C(Cc1cccs1)N[C@@H]1C(=O)N2C(C(=O)[O-])=C(C[n+]3ccccc3)CS[C@H]12` [cefaloridine], the Km was 244 µM.
